Experimental data reported in patent publication US20260159810A1, “MEDIUM COMPOSITION FOR INDUCING DIFFERENTIATION FROM STEM CELLS TO MACROPHAGES AND DIFFERENTIATION METHOD USING SAME” (SUNGKWANG MEDICAL FOUNDATION, priority 2022, published 2026).

Columns and labels:
mouse thymus cells = assay: Measurement of phagocytosis: differentiated macrophages co-cultured with fluorescently stained target cells; assay type: cell-based; conditions: various E:T ratios; cells positive for both CD11b and target-cell fluorescence; FIG. 7
Protocol: Phagocytosis of macrophages obtained from Example 1 and Comparative Example 1 was confirmed. Specifically, macrophages (effectors) obtained from Example 1 and Comparative Example 1 were co-cultured with mouse thymus cells (targets, fluorescently stained) at various E:T (effector:target) ratios. After co-culture, cells were collected and phagocytosis of macrophages was measured by measuring cells that simultaneously expressed macrophage-specific markers (CD11b) and fluorescence that had been stained on target cells.

[1] = test system: macrophage-specific markers (MHC 1, MHC 2, CD11b, CD86, CX3CR1, CD16) in hPSC-derived floating cells; assay: Identification of macrophage-specific markers by FACS; assay type: cell-based, human; conditions: medium supplemented with fasudil during differentiation to macrophages
Protocol: The expression pattern of markers specific to macrophages in the cells obtained in Example 1, Comparative Example 1, and Comparative Example 2 was investigated. Specifically, confirmation was performed using fluorescence-activated cell sorting (FACS, BD FACSCalibur™). Results of cells expressing CD11b, a surface marker of macrophages, and CD86, which is expressed in antigen presenting cells, confirmed through FACS are shown in FIG. 5. Results of cells expressing CX3CR1, which regulates macrophage function in inflammatory sites, and CD16, which is associated with antibody-dependent cell-mediated cytotoxicity (ADCC), confirmed through FACS are shown in FIG. 6.

## O=S(=O)(c1cccc2cnccc12)N1CCCNCC1 [fasudil]
Mouse thymus cells
  phagocytosis of macrophages: increased
[1]
  expression of macrophage-specific markers: increased
